Reference: patent publication US12233129B2, “Methods and compositions for the treatment of cancer” (priority 2019, dated 2025)
Entries after “also recorded” stand apart in the source; their conditions may differ.

Experiments:
p53 = experiment: Western blot of p53 in cytoplasm and nuclear fractions of etoposide-treated HCT-116 cells; assay type: cell-based, human; settings: 20 and 50 μM etoposide, 24 h
Excerpt: Small molecules, p53 c-terminus peptides, and silenced mot-2 abrogate mot-2-p53 complexes, resulting in p53 nuclear localization. Because UBXN2A is capable of releasing p53 from mot-2, we decided to determine whether UBXN2A can lead to p53 nuclear accumulation in a similar mechanism. HCT-116 cells were transiently transfected with different amounts of UBXN2A plasmid. Exogenous UBXN2A was detected dominantly in the cytoplasm fraction (FIG. 4a), and, therefore, it is an ideal model to identify the cellular consequences of UBXN2A gain-of-function. After 48 h, nuclear and cytoplasmic fractions were collected, followed by WB analysis (FIGS. 4a-d). […] Similar to several previously reported scenarios,^23 co-upregulation of UBXN2A with p53 may be essential to inhibiting mot-2 and delivering maximum p53 into nuclei during the initiation of genotoxic stress. Similar results were obtained in response to single DNA-strand damage produced by UVB irradiation. In the next step, we decided to determine whether UBXN2A increases the transcriptional activities of p53. We found overexpression of UBXN2A led to upregulation of BAX protein^24 (FIG. 4g). In addition, the level of cleaved PARP increased in the presence of overexpressed UBXN2A (FIG. 4g). […]

HCT-116 [1] = experiment: Annexin V early apoptosis, VTD plus etoposide; assay type: cell-based, human; settings: VTD 10-200 μM plus etoposide 5 μM, 24 hours
Method: (§1) The viability of cells was calculated as % of control.
(§2) Cells were then stained with Annexin V apoptotic marker.

LoVo [2] = experiment: Annexin V early apoptosis, VTD plus etoposide; assay type: cell-based, human; settings: VTD 10-200 μM plus etoposide 5 μM, 24 hours
Method: as §1, §2

HCT-116 [3] = test system: HCT-116
Method: (§3) Besides the cell viability assay, we decided to measure the apoptotic activity in the above combination therapy.
(§4) Cells were treated with 5-FU (5-100 μM) and etoposide (1-50 μM) along with VTD (30 and 100 μM respectively) in two different set of experiments for 24 hours.
(§5) An MTT (3[4, 5-dimethylthiazol-2-yl]-2, 5-diphenyltetrazolium bromide) assay was performed to measure the viability of cells. Briefly, cells were seeded at a density of 10×10^3 cells per well in phenol-red free growth media. After 24 hours, cells were treated with various concentrations of VTD±5-FU or etoposide. After incubation, an MTT dye was added to the cells for 2-4 hours. The absorbance of samples was measured at 630 nm using an EXL808 absorption spectrophotometer (Biotek, Winooski). The viability of cells was calculated as % of control. Cell detachment and clonogenic survival assays were conducted as previously described. Early apoptosis, caspase-3, cleaved PARP and Sytox Red (Life Technology, NY, USA) were measured by the Accuri C6 flow cytometer system (BD Pharmingen, MD, USA).[54]
(§6) (A-H) (A-C) HCT-116 and (D-F) LoVo were treated with VTD (10-300 μM) for 24, 48, and 72 hours. A suboptimal dose of Etoposide (ETO) ([…]) was added to cells for the last 24 hours only. The viability of cells was determined as % of control (untreated cells) using an MTT assay. […] (G-H) HCT-116 (G) and LoVo (H) cells were treated with VTD (10-200 μM) and a suboptimal dose of ETO (5 μM) for 24 hours. Cells were then stained with Annexin V apoptotic marker. […] (I-L) HCT-116 and LoVo cells were treated with different doses of 5-FU (5-100 μM, I-J) and ETO (1-50 μM, K-L) along with VTD (30 μM and 100 μM respectively) for 24 hours.

LoVo [4] = test system: LoVo
Method: as §3, §4, §5, §6

UBXN2A = experiment: RT-PCR and western blot of UBXN2A in etoposide-treated HCT-116 cells; assay type: cell-based, human
[5] = test system: SW-48 (WT-p53) colon cancer cells; experiment: Cell viability / clonogenic survival with and without mot-2 inhibitor MKT-077; assay type: cell-based, human; parameters: dose or concentration left out as unconfirmed; settings: VTD with mot-2 inhibitor MKT-077, 72 hours
Method: We decided to confirm whether VTD-induced tumor suppression is indeed mediated via the UBXN2A-mot-2-p53 axis (FIG. 18H). After initial verification with WB (FIG. 18A), HCT-116 (p53+/+ and p53 −/−) and LoVo were treated with VTD for 24, 48, and 72 hours (FIG. 18B-D). […] We defined this phenomenon as a delayed cytotoxic response, since it occurs through UBXN2A transcription, as previously described for other anti-cancer agents. […] In the second set of experiments, we treated two stable UBXN2A silenced clones of HCT-116 along with controls with VTD. […] Staurosporine-treated cells were used as a positive control (S4F). […] Finally, to understand the contribution of mot-2 to the anti-cancer mechanism of VTD, we used a mot-2 inhibitor known as MKT-077 [7] along with VTD in well-differentiated SW-48 (WT-p53) colon cancer cells for 72 hours. Due to the critical role of mot-2 in the mitochondria, we could not use a silencing strategy for mot-2 in this set of experiments.
FIG. 18: Veratridine (VTD) functions via the UBXN2A-mot-2-p53 axis. (A) WB confirmed the presence and the absence of p53 protein in HCT-116 p53^(+/+) and HCT-116 p53^(−/−) cancer cell lines, respectively. […] (F) In another set of experiments, UBXN2A-silenced cells were treated with VTD (100, 200, and 300 μM) for 24 hours. Cells were then labelled with Sytox Red followed by flow cytometry analysis. […] (G) SW48 well-differentiated colon cancer cells with WT-p53 were treated with MKT-077 (5 mg/ml), an mot-2 inhibitor, along with VTD for 72 hours. […] (H) This flowchart recapped the sequence of proteins which activate and function upon VTD exposure to decrease cell viability. The data is shown as mean±SEM of three independent experiments (n=3) in triplicate where *p<0.05 using Benferroni's modified student's t-test.

p53-mot-2 = biological target: T1, p53-mot-2 (Homo sapiens, UniProt P38646); experiment: In vitro competition immunoprecipitation assay (mot-2, p53, recombinant UBXN2A); assay type: binding
T1 construct: purchased SignalChem (Richmond, CANADA)
Excerpt: Because mot-2 binds to the […] of p53 and sequesters WT-p53 in the cytoplasm, we asked whether binding UBXN2A to mot-2 can alter mot-2's affinity for p53. […] That is, the two complexes might be mutually exclusive. To further determine whether the binding of mot-2 to UBXN2A decreases the binding of mot-2 to p53, we performed two set of immunoprecipitation experiments with recombinant UBXN2A. FIG. 3a describes an in vitro competition immunoprecipitation assay system containing mot-2, p53, and an increasing amount of recombinant UBXN2A. […] The lowest binding between p53-mot-2 was observed when UBXN2A and mot-2 were present in approximately a 1:1 ratio by their molecular mass (lane 1 versus lane 2). In FIG. 3b, cytosolic fractions enriched with mot-2 and p53 proteins (fractions 3-5, FIG. 2e) were incubated with recombinant GST-tag human UBXN2A protein. After the initial 2 h of incubation, samples were subjected to immunoprecipitation with anti-p53 antibodies. GST-UBXN2A and endogenous mot-2 ratio was 2.5:1 in the reaction. […] Next, we decided to verify whether endogenous UBXN2A can interfere with mot-2-p53 binding using an ex vivo model. […]
FIG. 3 UBXN2A and p53 compete for binding to mot-2. […] Mot-2 proteins were eluted from the beads and analyzed by western blotting using an anti-mot-2 antibody. […]

T1 sequence (P38646 47-679): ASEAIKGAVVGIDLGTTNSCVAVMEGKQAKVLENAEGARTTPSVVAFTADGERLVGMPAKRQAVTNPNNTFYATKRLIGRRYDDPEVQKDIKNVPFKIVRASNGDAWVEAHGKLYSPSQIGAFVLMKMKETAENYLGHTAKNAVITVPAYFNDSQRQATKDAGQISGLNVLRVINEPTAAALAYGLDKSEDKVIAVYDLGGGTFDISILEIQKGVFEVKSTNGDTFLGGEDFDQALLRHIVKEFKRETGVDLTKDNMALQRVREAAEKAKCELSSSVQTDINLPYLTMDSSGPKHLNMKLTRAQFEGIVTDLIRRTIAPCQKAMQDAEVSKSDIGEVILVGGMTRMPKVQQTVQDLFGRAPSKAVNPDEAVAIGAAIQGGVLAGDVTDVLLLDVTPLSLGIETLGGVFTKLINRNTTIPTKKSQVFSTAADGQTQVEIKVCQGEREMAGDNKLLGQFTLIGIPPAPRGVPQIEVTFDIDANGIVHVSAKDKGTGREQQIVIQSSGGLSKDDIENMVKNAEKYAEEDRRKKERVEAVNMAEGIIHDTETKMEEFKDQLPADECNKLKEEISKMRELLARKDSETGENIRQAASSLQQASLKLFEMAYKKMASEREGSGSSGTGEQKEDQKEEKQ

With `COc1cc([C@@H]2c3cc4c(cc3[C@@H](O[C@@H]3O[C@@H]5CO[C@@H](C)O[C@H]5[C@H](O)[C@H]3O)[C@H]3COC(=O)[C@H]23)OCO4)cc(OC)c1O` [etoposide] the “p53 upregulation and nuclear localization” value (p53) was “upregulation and nuclear localization of p53 becomes significant”, the “early apoptosis (Annexin V)” value (HCT-116 [1]) was “significantly sensitizes” and the “early apoptosis (Annexin V)” value (LoVo [2]) was “significantly sensitizes”. For the same molecule, the “cell viability (MTT), combination” value (HCT-116 [3]) was “significantly enhanced the VTD-induced decrease in cell viability”, the “cell viability (MTT), combination” value (LoVo [4]) was “significantly enhanced the VTD-induced decrease in cell viability” and the “effectiveness of etoposide alone (MTT)” value (LoVo [4]; LoVo versus HCT-116, time-dependent) was “more effectiveness in well differentiated cells (LoVo) than HCT-116 cells”. For the same molecule, the UBXN2A protein (UBXN2A; etoposide 20 and 50 μM, 24 h) was “increased; also recorded: significant upregulation of UBXN2A” and the “UBXN2A mRNA” value (UBXN2A; etoposide 24 h) was “increased; also recorded: enhances transcription of UBXN2A”.

In the case of `CCn1c(=O)/c(=C2\Sc3ccccc3N2C)s/c1=C\c1cccc[n+]1CC.[Cl-]` [MKT-077], the “cell viability / colony number” value [5] is reported as “neutralizes the cytotoxic effect of VTD”.

B1: recombinant human UBXN2A: recombinant GST-tag human UBXN2A protein (SignalChem) (protein, UniProt P68543 1-259, looked up)
UBX domain-containing protein …: MKDVDNLKSIKEEWVCETGSDNQPLGNNQQSNCEYFVDSLFEEAQKVSSKCVSPAEQKKQVDVNIKLWKNGFTVNDDFRSYSDGASQQFLNSIKKGELPSELQGIFDKEEVDVKVEDKKNEICLSTKPVFQPFSGQGHRLGSATPKIVSKAKNIEVENKNNLSAVPLNNLEPITNIQIWLANGKRIVQKFNITHRVSHIKDFIEKYQGSQRSPPFSLATALPVLRLLDETLTLEEADLQNAVIIQRLQKTASFRELSEH
modifications: GST tag
With B1 the “mot-2 protein-bound p53” value (p53-mot-2; HCT-116 cytosolic fractions 3-5, GST-UBXN2A to endogenous mot-2 ratio 2.5:1, 2 h) was “decreased the amount of mot-2 protein-bound p53” and the “mot-2 pulled down by anti-p53 antibodies” value (p53-mot-2; recombinant GST-p53, GST-mot-2, increasing amounts of UBXN2A) was “decreased the intensity of mot-2 bands”.
